Experiments:
CT26 cells = experiment: CT26 tumor xenograft model, tumor volume; format: in vivo, BALB/c mice
Description: We used a CT26 tumor xenograft model to test the anti-cancer activity of H1b-ADP. Tumor cells (2×10^5 per 100 uL CT26 cells) were inoculated subcutaneously into the right flank of BALB/c mice. At day 6, mice whose tumors had reached 3-5 mm in diameter were randomized and grouped into three groups (n=8 each group), control, HMP-1bP (580 ug), and H1b-ADP (1.2 ug). Injections were performed using a total volume of 20 uL at days 6, 8, 10, 12, and 14 post inoculation. Tumor volumes were calculated every 2 days from caliper measurements of tumor dimension using the formula (L×W^2)/2, where L is the longer measurement.
To test whether H1b-ADP could augment an anti-tumor response by a checkpoint inhibitor, we tested the effects of co-administration with an anti-PD1 antibody. Tumor cells (2×10^5 per 100 μL CT26 cells) were inoculated subcutaneously into the left and right flanks of BALB/c mice. At day 7, mice whose tumors had reached 5 mm in diameter were randomized and grouped (n=8 each group) into the following four groups: anti-PD1 antibody; rat IgG; H1b-ADP+rat IgG; H1b-ADP+anti-PD1 antibody. We utilized RMP1-14 as the anti-PD1 antibody (10 mg/kg) and a rat IgG 2a (2A3) as the control IgG. Each of the anti-PD-1 antibody and the control IgG was administered intraperitoneally in a 200 μL volume on days 6, 10, 12, and 17 post-inoculation. H1b-ADP (6.2 μg) was intratumorally injected in a 20 μL volume at day 6, 8, 10, 12, and 15. Tumor volumes were calculated every 2 days from caliper measurements of tumor dimensions using the formula (L×W^2)/2, where L is the longer measurement. The results are shown in FIG. 13A for injected tumors and FIG. 13B for distant tumors. […]
The experiment was carried out as combo experiments of anti-PD1 except for the following variations. At day 6, mice whose tumors had reached 5 mm in diameter were randomized and grouped into the following four groups: c-di-AM(PS)2; PBS; H1b-ADP; H1b-ADP+c-di-AM(PS)2. We utilized c-di-AM(PS)2 as the STING agonist. Each of the c-di-AM(PS)2 (1 μg) and H1b-ADP (6.2 μg) was administered intratumorally in a 20 μL volume on days 6, 7, and 9 post-inoculation.
The experiment was carried out as combo experiments of anti-PD-1 except for the following variations. At day 6, mice whose tumors had reached 5 mm in diameter were randomized and grouped into the following four groups: anti-CD4 antibody (GK1.5 clone, BE0003-1, BioXcell); rat IgG; H1b-ADP+rat IgG; H1b-ADP+anti-CD4 antibody. Each of the anti-CD4 antibody (200 μg) and the control IgG (200 μg) was administered intraperitoneally in a 200 μL volume on days 3, 4, 8 post-inoculation. H1b-ADP (6.2 μg) was administered intratumorally in a 20 μL volume on days 6, 8, 10, 12, 14 post-inoculation.
The experiment was carried out as combo experiments of anti-PD-1 except for the following variations. At day 6, mice whose tumors had reached 5 mm in diameter were randomized and grouped into the following four groups: Resquimod; PBS; H1b-ADP; H1b-ADP+Resquimod. Resquimod (10 μg) and H1b-ADP (6.2 μg) were administered intratumorally in a 20 μL volume on days 6, 8, 11 post-inoculation.
We used a CT26 tumor xenograft model to test the anti-cancer activity of H1b-ADP derivative Compounds 1 and 2. Tumor cells (2×10^5 per 100 uL CT26 cells) were inoculated subcutaneously into the right flank of BALB/c mice. At day 7, mice whose tumors had reached 3-5 mm in diameter were randomized and grouped into three groups (n=9 each group), control, Compound 1 (50 nmol), and Compound 2 (50 nmol). Injections were performed using a total volume of 20 uL at days 7, 9, and 11 post inoculation. Tumor volumes were calculated every 2 days from caliper measurements of tumor dimension using the formula (L×W^2)/2, where L is the longer measurement.

ALPK1 [1] = target: T1, ALPK1 (Homo sapiens, UniProt Q96QP1); experiment: Cell-free kinase assay of ALPK1 autophosphorylation (Western, anti-phospho-threonine); format: biochemical; details: ALPK1 2 nM, ATP; H1b-ADP 10, 1, 0.2 nM; HBP and HMP-1bP 1, 10, 100 nM
T1 sequence (Q96QP1 whole entry): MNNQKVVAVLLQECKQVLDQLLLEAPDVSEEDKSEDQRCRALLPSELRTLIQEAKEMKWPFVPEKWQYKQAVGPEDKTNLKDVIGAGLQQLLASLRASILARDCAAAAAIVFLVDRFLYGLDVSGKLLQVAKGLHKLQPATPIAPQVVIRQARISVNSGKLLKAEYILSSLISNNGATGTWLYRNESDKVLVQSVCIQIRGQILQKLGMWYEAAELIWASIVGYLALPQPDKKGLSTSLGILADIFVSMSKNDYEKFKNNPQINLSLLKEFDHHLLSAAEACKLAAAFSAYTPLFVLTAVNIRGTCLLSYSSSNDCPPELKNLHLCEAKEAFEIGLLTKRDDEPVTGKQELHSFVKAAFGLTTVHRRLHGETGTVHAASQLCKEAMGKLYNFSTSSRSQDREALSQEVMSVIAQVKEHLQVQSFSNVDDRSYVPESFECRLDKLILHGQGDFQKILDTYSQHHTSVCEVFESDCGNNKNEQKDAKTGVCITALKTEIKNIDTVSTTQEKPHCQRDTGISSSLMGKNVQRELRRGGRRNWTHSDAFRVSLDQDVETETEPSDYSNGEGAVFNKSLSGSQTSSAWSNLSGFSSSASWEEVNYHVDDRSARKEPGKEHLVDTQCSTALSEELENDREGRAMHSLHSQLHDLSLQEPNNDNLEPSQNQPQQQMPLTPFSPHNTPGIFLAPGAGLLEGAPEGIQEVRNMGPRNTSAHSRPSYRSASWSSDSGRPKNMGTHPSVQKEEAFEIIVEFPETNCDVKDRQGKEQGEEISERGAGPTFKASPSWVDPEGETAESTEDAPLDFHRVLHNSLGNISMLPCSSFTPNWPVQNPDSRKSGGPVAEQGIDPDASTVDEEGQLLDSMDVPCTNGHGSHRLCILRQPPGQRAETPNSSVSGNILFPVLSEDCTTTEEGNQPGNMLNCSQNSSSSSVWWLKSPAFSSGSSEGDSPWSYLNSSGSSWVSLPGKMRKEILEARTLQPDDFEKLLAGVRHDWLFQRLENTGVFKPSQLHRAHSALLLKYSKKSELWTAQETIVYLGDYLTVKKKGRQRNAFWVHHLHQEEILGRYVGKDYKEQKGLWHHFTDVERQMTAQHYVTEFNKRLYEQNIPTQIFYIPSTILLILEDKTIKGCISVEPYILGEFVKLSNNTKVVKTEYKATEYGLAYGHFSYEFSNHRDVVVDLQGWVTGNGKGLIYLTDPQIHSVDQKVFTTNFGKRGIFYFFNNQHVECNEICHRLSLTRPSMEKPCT
Description: ALPK1 activation results in its autophosphorylation. Accordingly, we next asked whether the binding of H1b-ADP to ALPK1 was sufficient to induce ALPK1 autophosphorylation. Phosphorylation assays were performed according to standard protocols. Briefly, ALPK1 was incubated (2 nM, 25° C., 1 h) in assay buffer (20 al, 25 mM HEPES pH 7.5, 50 mM KCl, 0.1 mM EDTA, 0.1 mM EGTA, 2 mM DTT, 1.5 mM CaCl2, 10 mM MgCl2) with ATP and chemically synthesized HBP, HMP-1bP, or H1b-ADP followed by denaturing gel electrophoresis and Western analysis with an anti-phospho-threonine antibody (CST) to detect autophosphorylation of ALPK1. […] The range of concentrations of HBP and HMP-1bP used in this assay (1 nM, 10 nM, 100 nM) was 10-fold higher than that used for H1b-ADP.

ALPK1 [2] = target: T1, ALPK1; experiment: IL-8 and TNFα mRNA expression in HEK293 cells with control or ALPK1-directed siRNA; format: cell-based; set-up: ALPK1-directed small interfering RNA (siRNA) to silence ALPK1 expression in HEK293 cells; endogenous in cells; host or cells: HEK293
Description: To test whether HBP, HMP-1bP, and H1b-ADP were able to induce cytokine expression in an ALPK1 dependent manner, we used an ALPK1-directed small interfering RNA (siRNA) to silence ALPK1 expression in HEK293 cells. Cells were plated (1×10^4 cells/well) into 96-well plates and transfected with either control siRNA or ALPK1-directed siRNA according to the manufacturer's protocols (Lipofectamine™ RNAiMax™, Invitrogen 13778075). Following 2 days of culture, either (1) HBP (500 uM, 100 uM, 20 uM, FIG. 2A-2B) (2) HMP-1bP (500 uM, 100 uM, FIG. 3A-3B), (3) H1b-ADP (100 nM, 20 nM, 4 nM, 0.8 nM, FIG. 4A-4B) was added to culture medium and cells were harvested 4 hours later.

[3] = test system: phosphatase activity in the serum; experiment: Incubation of H1b-ADP with FBS, product analysed by LC-MS; format: in vitro ADME, bovine; details: incubated with FBS, LC-MS; AMP formed
Text: FBS contains 110-352 U/ml alkaline phosphatase.

[4] = 4 hours, control vs ALPK1-directed siRNA

autophosphorylation of ALPK1 (ALPK1 [1]): detected only in the presence of H1b-ADP | IL-8 mRNA expression (ALPK1 [2]; [4]): increased in an ALPK1-dependent manner | TNFα mRNA expression (ALPK1 [2]; [4]): increased in an ALPK1-dependent manner | concentration at which IL-8 and TNFα mRNA expression were induced (ALPK1 [2]; FIG. 5): 10 nM | H1b-ADP amount with increasing incubation time [3]: declined
Structure (SMILES): Nc1ncnc2c1ncn2[C@@H]1O[C@H](COP(=O)(O)OP(=O)(O)O[C@@H]2O[C@H]([C@H](O)CO)[C@@H](O)[C@H](O)[C@@H]2O)[C@@H](O)[C@H]1O [Compound H1b-ADP, D-glycero-D-manno-heptose-1β-ADP]
tumor growth (CT26 cells; Example 7: H1b-ADP 6.2 μg intratumoral, RMP1-14 10 mg/kg intraperitoneal): markedly suppressed tumor growth | tumor growth (CT26 cells; intratumoral, days 6, 8, 10, 12, 14, HMP-1bP 580 ug, H1b-ADP 1.2 ug): reduced tumor growth
